In patent US5475010A, “7'-amino-naphthazarin antibiotic derivatives” (Gruppo Lepetit S.p.A., priority 1991, dated 1995):
Converted amounts (≈) assume the structure as drawn. Where a name gives a salt, the structure may show the parent alone. Read-outs that look alike come from different tables or passages of the source.

Experiments:
Assay type in all cases: cell-based
[1] = system: Tricophyton mentagrophytes; assay: MIC by broth microdilution, Trichophyton mentagrophytes; conditions: 72 h
[2] = system: Pseudomonas aeruginosa ATCC 10145; assay: MIC by broth microdilution, Pseudomonas aeruginosa; conditions: ATCC10145, Table 2, internal code 4, approx. 10^4 cfu/ml, Iso-Sensitest broth, 37° C., 20-24 h, air
[3] = system: Staphilococcus epidermidis ATCC 12228; assay: MIC by broth microdilution, Staphylococcus epidermidis; conditions: ATCC12228
[4] = system: Staphilococcus aureus Tour; assay: MIC by broth microdilution, Staphylococcus aureus Tour; conditions: Iso-Sensitest broth, 37° C., 20-24 h, air
[5] = system: Bacteroides fragiles ATCC 9689; assay: MIC by broth microdilution, Bacteroides fragilis; conditions: ATCC9689, Table 2, internal code 1010, approx. 10^4 cfu/ml, Wilkins-Chalgren broth, 37° C., 48 h, N2-CO2-H2 (80:10:10)
[6] = system: Escherichia coli SKF 12140; assay: MIC by broth microdilution, Escherichia coli; conditions: SKF12140
[7] = system: Enterococcus faecalis ATCC 7080; assay: MIC by broth microdilution, Enterococcus faecalis; conditions: ATCC7080
[8] = system: Streptococcus pneumonieae UC 41; assay: MIC by broth microdilution, Streptococcus pneumoniae; conditions: UC41
[9] = system: Streptococcus pyogenes C 203; assay: MIC by broth microdilution, Streptococcus pyogenes; conditions: C203
[10] = system: Propionibacterium acnes ATCC 6919; assay: MIC by broth microdilution, Propionibacterium acnes; conditions: Cutibacterium acnes
[11] = system: Staphilococcus haemolyticus (clin. isolate); assay: MIC by broth microdilution, Staphylococcus haemolyticus
[12] = system: Proteus vulgaris X19H ATCC 881; assay: MIC by broth microdilution, Proteus vulgaris
[13] = system: Clostridium perfringens ISS 30543; assay: microbe, parasite or virus in culture; conditions: ISS30543, 48 h
[14] = Table 2, internal code 165, inoculum 10^6 cfu/ml
[15] = Table 2, internal code 165, inoculum approx. 10^4 cfu/ml
[16] = Table 2, internal code 165, + 30% bovine serum
[17] = ATCC6919, Table 2, internal code 1014, approx. 10^4 cfu/ml, Wilkins-Chalgren broth, 37° C., 48 h, N2-CO2-H2 (80:10:10), read-out: MIC

| Structure (SMILES) | MIC ([1]; Table 2, internal code 634, 1% (v/v) suspension of mycelia and conidia, YM broth, 30° C., air, read-out: MIC) | MIC [2] | MIC [3] | MIC ([4]; Table 2, internal code 165, + 30% bovine serum, read-out: MIC) | MIC [4, 14] | MIC [4, 15] | MIC [5] | MIC [6] | MIC [7] | MIC [8] | MIC [9] | MIC ([10]; ATCC6919, 48 h) | MIC [11] | MIC ([12]; ATCC881) | MIC [1] | MIC [4, 16] | MIC [13] | MIC ([12]; ATCC881, Table 2, internal code 79, approx. 10^4 cfu/ml, Iso-Sensitest broth, 37° C., 20-24 h, air, read-out: MIC) | MIC [10, 17] |
| --- | --- | --- | --- | --- | --- | --- | --- | --- | --- | --- | --- | --- | --- | --- | --- | --- | --- | --- | --- |
| CCNC1=CC(=O)c2c(O)c3c(c(O)c2C1=O)OC1(C3)CC(O)c2cc3cc(C(=O)OC)oc(=O)c3c(O)c2O1 (centres unmarked) [Example 10, 7'-ethylamino purpuromycin] | ≤ 0.13 µg/mL | > 128 µg/mL | 0.06 µg/mL (≈ 0.109 µM) | 1 µg/mL | 0.06 µg/mL (≈ 0.109 µM) | 0.06 µg/mL (≈ 0.109 µM) | 0.06 µg/mL (≈ 0.109 µM) | > 128 µg/mL | 0.06 µg/mL (≈ 0.109 µM) | 0.06 µg/mL (≈ 0.109 µM) | 0.06 µg/mL (≈ 0.109 µM) | 0.06 µg/mL (≈ 0.109 µM) | 0.06 µg/mL (≈ 0.109 µM) | > 128 µg/mL | – | – | – | – | – |
| COC(=O)c1cc2cc3c(c(O)c2c(=O)o1)OC1(Cc2c(O)c4c(c(O)c2O1)C(=O)C(NCC#N)=CC4=O)CC3O (centres unmarked) [Example 16, 7'-(cyanomethylen)amino purpuromycin] | – | > 128 µg/mL | 0.13 µg/mL (≈ 0.231 µM) | – | 0.13 µg/mL (≈ 0.231 µM) | 0.13 µg/mL (≈ 0.231 µM) | 0.5 µg/mL (≈ 0.889 µM) | > 128 µg/mL | 0.13 µg/mL (≈ 0.231 µM) | 0.03 µg/mL (≈ 0.0533 µM) | 0.13 µg/mL (≈ 0.231 µM) | 0.016 µg/mL (≈ 0.0284 µM) | 0.13 µg/mL (≈ 0.231 µM) | > 128 µg/mL | 128 µg/mL (≈ 228 µM) | 2 µg/mL | 0.13 µg/mL (≈ 0.231 µM) | – | – |
| COC(=O)c1cc2cc3c(c(O)c2c(=O)o1)OC1(Cc2c(O)c4c(c(O)c2O1)C(=O)C(NCCNC(=O)OC(C)(C)C)=CC4=O)CC3O (centres unmarked) [Example 18, 7'-(2-(N--BOC-amino)ethylen)-amino purpuromycin] | – | > 128 µg/mL | 0.06 µg/mL (≈ 0.09 µM) | – | 0.13 µg/mL (≈ 0.195 µM) | 0.13 µg/mL (≈ 0.195 µM) | 0.5 µg/mL (≈ 0.75 µM) | > 128 µg/mL | 0.13 µg/mL (≈ 0.195 µM) | 0.06 µg/mL (≈ 0.09 µM) | 0.13 µg/mL (≈ 0.195 µM) | 0.016 µg/mL (≈ 0.024 µM) | 0.06 µg/mL (≈ 0.09 µM) | > 128 µg/mL | > 128 µg/mL | 2 µg/mL | 0.25 µg/mL (≈ 0.375 µM) | – | – |
| COC(=O)c1cc2cc3c(c(O)c2c(=O)o1)OC1(Cc2c(O)c4c(c(O)c2O1)C(=O)C(NCCN)=CC4=O)CC3O (centres unmarked) [Example 19, 7'-(2-aminoethylen)-amino purpuromycin trifluoroacetate] | – | > 128 µg/mL | 1 µg/mL | – | 1 µg/mL | 1 µg/mL | > 128 µg/mL | > 128 µg/mL | 2 µg/mL | 1 µg/mL | 2 µg/mL | 0.5 µg/mL | 1 µg/mL | – | > 128 µg/mL | 8 µg/mL | 0.5 µg/mL | > 128 µg/mL | – |
| COC(=O)c1cc2cc3c(c(O)c2c(=O)o1)OC1(Cc2c(O)c4c(c(O)c2O1)C(=O)C(NCCO)=CC4=O)CC3O (centres unmarked) [Example 21, 7'-(2-hydroxyethylen)-amino purpuromycin] | – | ≥ 128 µg/mL | 0.06 µg/mL (≈ 0.106 µM) | – | 0.13 µg/mL (≈ 0.229 µM) | 0.06 µg/mL (≈ 0.106 µM) | 0.13 µg/mL (≈ 0.229 µM) | ≥ 128 µg/mL | 0.06 µg/mL (≈ 0.106 µM) | 0.016 µg/mL (≈ 0.0282 µM) | 0.03 µg/mL (≈ 0.0529 µM) | – | 0.13 µg/mL (≈ 0.229 µM) | ≥ 128 µg/mL | ≥ 128 µg/mL | 1 µg/mL | – | – | 0.004 µg/mL (≈ 0.00705 µM) |
| COC(=O)c1cc2cc3c(c(O)c2c(=O)o1)OC1(Cc2c(O)c4c(c(O)c2O1)C(=O)C(NCC(F)(F)F)=CC4=O)CC3O (centres unmarked) [Example 23, 7'-(2,2,2-trifluoroethylen)-amino purpuromycin] | – | > 128 µg/mL | 0.016 µg/mL (≈ 0.0264 µM) | – | 0.03 µg/mL (≈ 0.0496 µM) | 0.016 µg/mL (≈ 0.0264 µM) | 0.06 µg/mL (≈ 0.0991 µM) | > 128 µg/mL | 0.03 µg/mL (≈ 0.0496 µM) | 0.06 µg/mL (≈ 0.0991 µM) | 0.13 µg/mL (≈ 0.215 µM) | – | 0.016 µg/mL (≈ 0.0264 µM) | > 128 µg/mL | > 128 µg/mL | 2 µg/mL | 0.03 µg/mL (≈ 0.0496 µM) | – | 0.008 µg/mL (≈ 0.0132 µM) |
| COC(=O)c1cc2cc3c(c(O)c2c(=O)o1)OC1(Cc2c(O)c4c(c(O)c2O1)C(=O)C(N)=CC4=O)CC3O (centres unmarked) [Example 25, 7'-Aminopurpuromycin] | – | > 128 µg/mL | 0.03 µg/mL (≈ 0.0573 µM) | – | 0.06 µg/mL (≈ 0.115 µM) | 0.03 µg/mL (≈ 0.0573 µM) | 0.06 µg/mL (≈ 0.115 µM) | > 128 µg/mL | 0.06 µg/mL (≈ 0.115 µM) | 0.016 µg/mL (≈ 0.0306 µM) | 0.03 µg/mL (≈ 0.0573 µM) | – | 0.06 µg/mL (≈ 0.115 µM) | > 128 µg/mL | – | 1 µg/mL | – | – | 0.008 µg/mL (≈ 0.0153 µM) |
